± gives the expanded uncertainty stated by the source.
Assay: xn = mol fraction of the nth substance listed
Conditions: for surface tension liquid-gas: wilhelmi plate; for viscosity / speed of sound / mass density: 100 kPa, Liquid; for viscosity: Capillary tube (Ostwald / Ubbelohde) method; for speed of sound: Frequency=3 MHz, Sing-around technique in a fixed-path interferometer; for mass density: Vibrating tube method

CN(C)CCN [2-dimethylamino-1-ethylamine] + O
Conditions | mass density [kg/m3] | speed of sound [m/s] | surface tension liquid-gas [mN/m] | viscosity [mPa·s]
293.15 K, x1 = 0.1002 | 975 ± 2 | 1773.4 ± 2.5 | 42.6 ± 0.7 | 6.83 ± 0.1
293.15 K, x1 = 0.2 | 952 ± 2 | 1708.6 ± 2.2 | 37.1 ± 0.6 | 12.66 ± 0.073
293.15 K, x1 = 0.3002 | 920 ± 2 | 1605.4 ± 2.3 | 32.9 ± 0.6 | 10.5 ± 0.08
293.15 K, x1 = 0.3996 | 895 ± 2 | 1517.2 ± 2.2 | 30.6 ± 0.6 | 6.463 ± 0.069
293.15 K, x1 = 0.5035 | 874 ± 2 | 1456.6 ± 2.1 | 29.4 ± 0.6 | 3.875 ± 0.043
293.15 K, x1 = 0.5995 | 858 ± 2 | 1419.2 ± 2.1 | 28.6 ± 0.6 | 2.743 ± 0.028
293.15 K, x1 = 0.7007 | 844 ± 2 | 1387.2 ± 2.2 | 27.9 ± 0.6 | 1.965 ± 0.021
293.15 K, x1 = 0.8002 | 833 ± 2 | 1349.8 ± 2.3 | 27.4 ± 0.6 | 1.464 ± 0.016
293.15 K, x1 = 0.8999 | 825 ± 2 | 1328 ± 2.4 | 26.9 ± 0.7 | 1.162 ± 0.013
293.15 K, x1 = 1 | 819 ± 2 | 1319.6 ± 2.5 | 26.4 ± 0.7 | 0.988 ± 0.012
303.15 K, x1 = 0.1002 | 970 ± 2 | 1743.6 ± 2.1 | 41.9 ± 0.7 | 4.28 ± 0.058
303.15 K, x1 = 0.2 | 943 ± 2 | 1672.8 ± 2.2 | 36.3 ± 0.6 | 7.355 ± 0.045
303.15 K, x1 = 0.3002 | 912 ± 2 | 1568.6 ± 2.3 | 32.2 ± 0.6 | 6.268 ± 0.048
303.15 K, x1 = 0.3996 | 886 ± 2 | 1480.2 ± 2.2 | 29.8 ± 0.6 | 4.148 ± 0.041
303.15 K, x1 = 0.5035 | 865 ± 2 | 1419.2 ± 2.1 | 28.6 ± 0.6 | 2.709 ± 0.027
303.15 K, x1 = 0.5995 | 849 ± 2 | 1381.6 ± 2.1 | 27.8 ± 0.6 | 2.013 ± 0.02
303.15 K, x1 = 0.7007 | 835 ± 2 | 1349 ± 2.2 | 27.1 ± 0.6 | 1.51 ± 0.016
303.15 K, x1 = 0.8002 | 824 ± 2 | 1305.2 ± 2.3 | 26.6 ± 0.6 | 1.161 ± 0.013
303.15 K, x1 = 0.8999 | 816 ± 2 | 1288.7 ± 2.4 | 26.1 ± 0.6 | 0.94 ± 0.011
303.15 K, x1 = 1 | 810 ± 2 | 1279.3 ± 2.5 | 25.8 ± 0.7 | 0.819 ± 0.01
313.15 K, x1 = 0.1002 | 963 ± 2 | 1712.8 ± 1.8 | 41.3 ± 0.7 | 2.891 ± 0.037
313.15 K, x1 = 0.2 | 935 ± 2 | 1636.1 ± 2.2 | 35.2 ± 0.6 | 4.689 ± 0.031
313.15 K, x1 = 0.3002 | 901 ± 2 | 1531.3 ± 2.3 | 31.2 ± 0.6 | 4.105 ± 0.031
313.15 K, x1 = 0.3996 | 877 ± 2 | 1443.1 ± 2.1 | 28.9 ± 0.6 | 2.884 ± 0.027
313.15 K, x1 = 0.5035 | 856 ± 2 | 1381.8 ± 2.1 | 27.8 ± 0.6 | 2.019 ± 0.019
313.15 K, x1 = 0.5995 | 840 ± 2 | 1343.3 ± 2.1 | 27 ± 0.6 | 1.552 ± 0.015
313.15 K, x1 = 0.7007 | 826 ± 2 | 1310.3 ± 2.2 | 26.3 ± 0.6 | 1.192 ± 0.012
313.15 K, x1 = 0.8002 | 814 ± 2 | 1266.2 ± 2.3 | 25.8 ± 0.6 | 0.937 ± 0.01
313.15 K, x1 = 0.8999 | 806 ± 2 | 1249.2 ± 2.4 | 25.3 ± 0.6 | 0.773 ± 0.009
313.15 K, x1 = 1 | 801 ± 2 | 1239 ± 2.5 | 25.2 ± 0.7 | 0.693 ± 0.008
323.15 K, x1 = 0.1002 | 955 ± 2 | 1682 ± 1.7 | 40.4 ± 0.7 | 2.069 ± 0.025
323.15 K, x1 = 0.2 | 926 ± 2 | 1598.4 ± 2.3 | 34.3 ± 0.6 | 3.179 ± 0.021
323.15 K, x1 = 0.3002 | 893 ± 2 | 1493.1 ± 2.3 | 30.6 ± 0.6 | 2.853 ± 0.021
323.15 K, x1 = 0.3996 | 868 ± 2 | 1411.3 ± 2.1 | 27.9 ± 0.6 | 2.105 ± 0.019
323.15 K, x1 = 0.5035 | 847 ± 2 | 1343.5 ± 2.1 | 27.1 ± 0.6 | 1.519 ± 0.014
323.15 K, x1 = 0.5995 | 831 ± 2 | 1305.1 ± 2.1 | 26.4 ± 0.6 | 1.201 ± 0.011
323.15 K, x1 = 0.7007 | 817 ± 2 | 1271.7 ± 2.2 | 25.7 ± 0.6 | 0.967 ± 0.01
323.15 K, x1 = 0.8002 | 806 ± 2 | 1227 ± 2.3 | 25.2 ± 0.6 | 0.804 ± 0.009
323.15 K, x1 = 0.8999 | 797 ± 2 | 1209.1 ± 2.4 | 24.7 ± 0.6 | 0.686 ± 0.008
323.15 K, x1 = 1 | 791 ± 2 | 1199.3 ± 2.5 | 24.5 ± 0.7 | 0.596 ± 0.007

Source: the NIST ThermoML archive (doi:10.1021/acs.jced.5b00447)
